6 molecules from US12686875B2, “Small molecules for increasing precise genome editing efficiency” (Max-Planck-Gesellschaft zur Förderung der Wissenschaften …, priority 2018, dated 2026) can be followed below.

In one series the test system is K562 cells. The series is described as follows: Resazurin assay for cell survival three days after editing. Format: cell-based, human. An excerpt: FIG. 2: Cell survival of human immortalized myelogenous leukemia cells K562 cells after treatment with the small molecule M3814. Results of a resazurin assay for cell survival three days after editing are shown. Resazurin is converted into fluorescent resorfin by cellular dehydrogenases and resulting fluorescence (Excitation: 530-570 nm, Emission: 590-620 nm) is a marker for the amount of living cells. Resorfin fluorescence (610±30 nm) of cells without any treatment is set to 100% cell survival. Error bars show the SEM of three technical replicates for three technical replicates.
Cells were either seeded with or without editing reagents. The media was supplemented with or without M3814 and each condition was carried out in duplicate. After 72 h media was aspirated and 100 μl fresh media together with 10 μl resazurin solution (Cell Signaling, 11884) was added. Resazurin is converted into fluorescent resorfin by cellular dehydrogenases and resulting fluorescence (Excitation: 530-570 nm, Emission: 590-620 nm) is considered as a linear marker for cell viability (O'Brien et al. 2000). Cells were incubated with resazurin at 37° C. The redox reaction was measured every hour by fluorescence readings using a Typhoon 9410 imager (Amersham Biosciences). […] Duplicate wells with media and resazurin, but without cells, were used a blank.

In the next series the test system is 409B2 hiPSCs. The series is described as follows: Genome editing of FRMD7 with Cas9 protein in 409B2 hiPSCs. Format: cell-based, human. The note with it: 2 μM, Cas9 induced DSB. An excerpt:
FIG. 5: Comparison of the effect of DNA-PK inhibitors on genome editing efficiency. Editing efficiencies of FRMD7 with Cas9 protein and treatment with different concentrations of M3814, NU7026, and NU7441 are shown for K562 cells (A) and 409B2 hiPSCs (B). HDR, mix (HDR with indels), NHEJ, and MMEJ are indicated in green, light green, light blue and light purple, respectively. Error bars show the SEM of three replicates. A skull indicates excessive cell death of up to around 80% determined by phase contrast light microscopy.
(§1) We recently created an iCRISPR-Cas9n line from human induced pluripotent stem cells (hiPSCs) (409-B2, Riken BioResource Center) and human embryonic stem cells (hESCs) (H9) as described by Gonzalez et al. Stem cells were grown on Matrigel Matrix (Corning, 35248) in mTeSR1 medium (StemCell Technologies, 05851) with supplement (StemCell Technologies, 05852) that was replaced daily. K562 cells (ECACC, 89121407) were grown with IMDM (ThermoFisher, 12440053) supplemented with 10% FBS. Cells were grown at 37° C. in a humidified incubator gassed with 5% CO2. Media was replaced every second day for non-pluripotent cell lines. Cell cultures were maintained 4-6 days until ~80% confluency, and subcultured at a 1:6 to 1:10 dilution. Adherent cells were dissociated using EDTA (VWR, 437012C). The media was supplemented with 10 μM Rho-associated protein kinase (ROCK) inhibitor Y-27632 (Calbiochem, 688000) after cell splitting for one day in order to increase cell survival.
The recombinant A.s. Cpf1 and S.p. Cas9 protein and electroporation enhancer was ordered from IDT (Coralville, USA) and nucleofection was done using the manufacturer's protocol, except for the following alterations. […] Cells were counted using the Countess Automated Cell Counter (Invitrogen). […]

The next series has as its system H9 hESCs. The series is described as follows: Genome editing of LYPLA1 and SCAP by Cas9n double nicking in H9 hESCs-iCRISPR. Format: cell-based, human. The note with it: M3814 for three days.
Description: Genome editing efficiencies of the LYPLA1 and SCAP gene in H9 hESCs-iCRISPR Cas9 nickase (Cas9n) double nicking and treatment with M3814 for three days and with DNA-PKcs K3753R cells are shown. HDR, mix (HDR with indels), NHEJ (non-homologous end joining), and MMEJ (microhomology-mediated end joining with at least two bp of microhomology) are indicated in green, light green, light blue, and light purple, respectively.
as §1, with “The media was supplemented with 10 μM Rho-associated protein kinase (ROCK) inhibitor Y-27632 (Calbiochem, 688000) after cell splitting for one day in order to increase cell survival.” left out
The recombinant A.s. […] Cells were counted using the Countess Automated Cell Counter (Invitrogen). […]

Series [1] relates to K562 cells expressing wild-type DNA-PKcs. The series is described as follows: Genome editing of FRMD7 with Cas9 in K562 cells, amplicon sequencing (HDR / precise genome editing efficiency). The class given is cell-based, human. Particulars: for HDR-increasing effect / precise genome editing efficiency, comparison of DNA-PKcs inhibitors: K562 cells, Cas9 induced DSB, 2 μM and 20 μM. As for the experimental part:
Cells were grown at 37° C. in a humidified incubator gassed with 5% CO2.
The recombinant A.s. Cpf1 and S.p. Cas9 protein and electroporation enhancer was ordered from IDT (Coralville, USA) and nucleofection was done using the manufacturer's protocol, except for the following alterations. […] Cells were counted using the Countess Automated Cell Counter (Invitrogen).
Incubation at 65° C. for 10 min, 68° C. for 5 min and finally 98° C. for 5 min was performed to yield ssDNA as a PCR template. […] PCR was done in a T100 Thermal Cycler (Bio-Rad) using the KAPA2G Robust PCR Kit (Peqlab, 07-KK5532-03) with supplied buffer B and 3 μl of cell extract in a total volume of 25 μl. The thermal cycling profile of the PCR was: 95° C.

For series [2], the system named is wild-type cell line, NFASC target. The experiment in a line: Genome editing of NFASC target with transient NHEJ/MMEJ/SSA inhibition in a wild-type cell line. Format: cell-based. Particulars: combination of 2 μM M3814, 320 pmol PoIQ siRNA aa765, PoIQ coding strand nicking, 5 μM 6-OH-dopa, 50 μM AICAR. An excerpt:
FIG. 7: Inhibition of RAD52 dependent single strand annealing (SSA) together with MMEJ inhibition is needed to further increase HDR for rare targets with long stretches of homology. The NFASC target has an 11 bp stretch of homology. The first three bars show editing efficiencies in a wild-type cell line, a DNA-PKcs KR cell line leading to NHEJ inhibition, and a DNA-PKcs KR+PoIQ Knockout cell line leading to NHEJ and MMEJ inhibition. […] HDR, mix (HDR with indels), NHEJ, and estimated MMEJ/SSA (at least 2 bp microhomology) are indicated in green, light green, light blue, and light purple, respectively. Error bars show the SEM of at least two replicates and one experiment for the last bar.
In some cases the target for genome editing has long homology stretches around the cleavage site. […] We speculated that indel formation was carried out by the RAD52 dependent single strand annealing pathway (SSA) which uses long stretched of homology.

Another series deals with polymerase theta (PoIQ). The series is described as follows: Genome editing efficiency with PoIQ (MMEJ) inhibition in cells with DNA-PKcs KR mutation. Format: cell-based, human. The note with it: cells with DNA-PKcs KR mutation (NHEJ inhibited). Here is the method: FIG. 6: Inhibition of polymerase theta (PoIQ) dependent microhomology mediated end-joining (MMEJ) can further increase HDR if the target of interest is prone to MMEJ repair. All cells have inhibited NHEJ due to the DNA-PKcs KR mutation, which can be transiently achieved by M3814 in wildtype cells as well. Shown are genome editing efficiencies. Cells were treated with different amounts of siRNA against PoIQ (Dharmacon ON-TARGET plus Human POLQ (10721) siRNA-SMART pool), single nicking of the first exon of PolQ, a combination of the SMART pool and coding strand nicking, and siRNA against PoIQ binding the mRNA at the sequence corresponding to amino acid 765 of PolQ. A cell line with both DNA-PKcs KR and PoIQ knockout mutation is shown for comparison. HDR, mix (HDR with indels), NHEJ, and estimated MMEJ (at least 2 bp microhomology) are indicated in green, light green, light blue, and light purple, respectively. Error bars show the SEM of at least two replicates.
For some targets HDR is increased but a substantial portion of genome editing events however still consists of indels. These are due to the microhomology mediated end-joining (MMEJ) pathway (also referred to as alternative NHEJ) which can compete with NHEJ and serves as a back-up pathway which relies on short stretches of microhomology at the cleavage site. […]

As to `COc1ccc([C@@H](O)c2cc(-c3ncnc4cc(N5CCOCC5)ccc34)c(F)cc2Cl)nn1` [M3814, Nedisertib], in the series on K562 cells, the “toxicity (cell survival, resazurin assay)” value is “moderate toxicity”. Further, the “HDR efficiencies” value with 409B2 hiPSCs is listed as “strongly increased HDR efficiencies”. Further, in the series on H9 hESCs, the “HDR efficiencies compared with DNA-PKcs K3753R mutation” value is reported as “comparable to what is achievable by total inactivation of the DNA-PKcs catalytic active site”. The “precise genome editing / HDR efficiency” value in series [1] (K562 cells expressing wild-type DNA-PKcs, FRMD7, Cas9, transient M3814 treatment (three days), 18% without M3814) was 81%. Besides, in series [1], the “HDR-increasing effect / precise genome editing efficiency, comparison of DNA-PKcs inhibitors” value is “stronger HDR-increasing effect than treatment with NU7026 and NU7441”. Also, the “HDR, combined NHEJ/MMEJ/SSA inhibition” value in series [2] is given as “drastic HDR increase”.

Consider “siRNA aa765: siRNA binding PoIQ mRNA before the sequence corresponding to the first RAD51 binding domain (SEQ ID NO: 63) (TTGGAAAATACTGTAATCATCCCTGCA; listed as DNA, chemistry not given here)”, for which, in the series with polymerase theta (PoIQ), the “HDR and indels with MMEJ signature, siRNA alone” value was “high HDR”.

For the molecule `NC(Cc1cc(O)c(O)cc1O)C(=O)O` (stereo not shown) [6-hydroxy-depa, 6-hydroxy-dopa], in series [2], the “HDR, combined NHEJ/MMEJ/SSA inhibition” value is recorded as “drastic HDR increase”.

Regarding `NC(=O)c1ncn([C@@H]2O[C@H](COP(=O)(O)O)[C@@H](O)[C@H]2O)c1N` [AICAR, AICA ribonucleotide 5′-monophosphate], the “HDR, combined NHEJ/MMEJ/SSA inhibition” value in series [2] is listed as “drastic HDR increase”.

Regarding `O=c1cc(N2CCOCC2)oc2c1ccc1ccccc12` [NU7026], the “HDR efficiencies” value with 409B2 hiPSCs is “much lower efficiencies”. In addition, the “HDR-increasing effect / precise genome editing efficiency, comparison of DNA-PKcs inhibitors” value in series [1] is on record as “significantly less precise genome editing efficiency”.

As for `O=c1cc(N2CCOCC2)oc2c(-c3cccc4c3sc3ccccc34)cccc12` [NU7441], the “HDR efficiencies” value in the series with 409B2 hiPSCs is on record as “much lower efficiencies”. In addition, the “HDR-increasing effect / precise genome editing efficiency, comparison of DNA-PKcs inhibitors” value in series [1] is “significantly less precise genome editing efficiency”.
